# Test results as given in patent publication US9376406B2, “uPAR-uPA interaction inhibitors and methods for treating cancer” (Indiana University Research and Technology Corporation, priority 2011, dated 2016).
# Entries after “also recorded” stand apart in the source; their conditions may differ.
# Assays:
# MDA-MB-231 cells [1] = experiment: Cytotoxicity (MTT); type: cell-based, human
# Method: (§1) Transwell Migration Assay. A 24 well transwell plates (Costar, Corning, N.Y.) were coated with fibronectin. After 4 h of serum starvation, medium containing the same amount of compounds or DMSO were added to the upper chamber and incubated at 37° C. for 8 h. The number of migrated cells was counted in 10 separate 200×fields and averaged over three independent experiments. Cytotoxicity of the compounds on the cells was measured at the same concentrations used in the migration assay during the same incubation time. MTT was added 2 h before measuring.
# (§2) A 24 well transwell plates (Costar, Corning, N.Y.) were coated with 30 ng/μl of fibronectin at 4° C. overnight. 500 μl of 10% FBS RPMI-1640 medium containing compounds or 1% DMSO control was added to the lower chamber. After 4 h of serum starvation, 5×10^4 cells in 250 μl of 0.1% FBS medium containing the same amount of compounds or DMSO were added to the upper chamber and incubated at 37° C. for 8 h. Non-invaded cells on the top of the transwell were scrapped-off with a cotton swab, and the cells that had migrated through the filter were fixed in methanol for 30 min, stained with Hematoxylin Stain (Fisher, SH30-500D) for 1 h. The number of migrated cells was counted in 10 separate 200×fields and averaged over three independent experiments. Cytotoxicity of the compounds on the cells was measured at the same concentrations used in the migration assay during the same incubation time, MTT was added 2 h before measuring.
# (§3) Ten fields of unit area on each membrane were counted for cell numbers (magnification, 200×). […] The effect of the compound appears to be more pronounced in MDA-MB-231 cells compared with H1299. The level of toxicity of the compounds is measured at each concentration within the timescale of the invasion experiment to ensure that the observed effects are not due to cytotoxicity (FIG. 3(a)).
# H1299 cells [2] = experiment: Cytotoxicity (MTT); type: cell-based, human
# Method: as §1, §2, §3
# MDA-MB-231 cells [3] = experiment: Adhesion assay; type: cell-based, human; conditions: MDA-MB-231, fibronectin- and vitronectin-coated wells
# Method: (§4) Adhesion Assay. 96-well plates were coated with 15 ng/μl fibronectin (Sigma, St. Louis, Mo.) at 4° C. overnight, then blocked with 0.5% BSA in PBS for 1 h. After starving with serum-free medium for 3 h, H1299 or MDA-MB-231 (2.5×10^5 cells/ml) were trypsinized and suspended in 100 μl of 0.1% FBS medium with various concentrations of uPAR compounds or DMSO control at 37° C. for 90 min. Medium was then carefully suctioned out from each well. Each well was washed three times with PBS. MTT-assay was used to determine the number of remaining cells (adherent cells).
# (§5) The numbers of attached cells were quantified by MTT assay. Adherent cells are also quantified with fluorescence. […] The lack of inhibition was found both on fibronectin- and vitronectin-coated wells.
# H1299 cells [4] = experiment: Adhesion assay; type: cell-based, human; conditions: H1299, fibronectin- and vitronectin-coated wells
# Method: as §4, §5
# uPAATF binding to uPAR = molecular target: T1, uPAATF binding to uPAR (Homo sapiens, UniProt Q03405); experiment: Microtiter-based uPAATF ELISA; conditions: inhibition of uPAATF binding to uPAR
# T1 construct: uPAR comprising amino acids 1-277 was expressed in Drosophila S2 cells; made in house; host or cells: Drosophila S2 cells (uPAR)
# T1 sequence (Q03405 23-299): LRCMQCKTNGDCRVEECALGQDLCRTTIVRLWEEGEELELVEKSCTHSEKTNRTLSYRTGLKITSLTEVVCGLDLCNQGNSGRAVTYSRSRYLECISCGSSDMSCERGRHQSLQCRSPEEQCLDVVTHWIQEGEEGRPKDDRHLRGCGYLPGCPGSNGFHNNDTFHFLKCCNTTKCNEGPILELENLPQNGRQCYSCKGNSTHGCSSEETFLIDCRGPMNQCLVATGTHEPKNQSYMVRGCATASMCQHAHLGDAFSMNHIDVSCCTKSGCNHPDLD
# Method: Microtiter-Based ELISA. The competition-binding assays were performed by incubating the proteins with inhibitors prior to binding to the immobilized proteins. Medium to high-binding microplates were coated and incubated for 1 hour at 4° C. with 100 μL of 2 μg/mL of uPAATF in 1×PBS for immobilization. A 1:1 mixture of Superblock® buffer in PBS (Thermoscientific) with 0.04 M NaH2PO4 and 0.3 M NaCl buffer were used for blocking Following the incubation and washing steps, uPA1310 biotinylated antibody (R&D Systems, MN) in 1% BSA 1×PBS buffer (100 μL/well) was added to the wells and incubated for 1-2 hours to allow for the detection of bound uPAR. In the presence of streptavidin-peroxidase and hydrogen peroxide signal was detected on an EnVision® Multilabel Plate Readers (PerkinElmer).
# uPAR = molecular target: T2, uPAR (Homo sapiens, UniProt Q03405); experiment: Fluorescence polarization, direct binding to uPAR
# T2 construct: uPAR comprising amino acids 1-277 was expressed in Drosophila S2 cells; made in house; host or cells: Drosophila S2 cells
# T2 sequence (Q03405 23-299): as above
# Method: Fluorescence polarization in the presence and absence of protein and were measured using identical conditions as described above.
# The mP was evaluated in the a presence and absence of competing 10 μM GFD.
# MDA-MB-231 cells [5] = experiment: Immunofluorescence imaging of surface uPA and uPAR; type: cell-based, human; conditions: MDA-MB-231, 100 μM, 30 min, vs DMSO control
# Method: (§6) Immunofluorescence Imaging. An immunofluorescence approach was employed to establish the specificity of the compounds. This consisted of using a fluorescently labeled secondary antibody to probe for the presence of an anti-uPA antibody bound to uPA at the cell surface of MDA-MB-231 and H1299 cancer cells. […] Non-specific bindings were blocked with 5% normal goat serum, 5% BSA, 0.01% Triton X-100 in PBS at RT for 1 h, the cells were then incubated overnight at 4° C. with rabbit polyclonal anti-human uPA or mouse monoclonal anti-human uPAR antibodies (both at a dilution of 1:100 in 1% BSA/PBS). After another washing step with PBS three times, the cells were incubated with anti-rabbit IgG conjugated with Alexa 594 Texas Red (Invitrogen Corporation, Carlsbad, Calif.) or goat anti-mouse IgG conjugated with Alexa Fluor 488 (Invitrogen Corporation, Carlsbad, Calif.), both at a dilution of 1:1000 in 1% BSA/PBS at RT for 1 h in the dark. Images were acquired using a Nikon swept-filed confocal microscope.
# (§7) Endogenous uPAR and uPA in the non-small cell lung cancer (NSCLC) cell line H1299 and in a breast cancer cell line MDA-MB-231 were immunostained with selective antibodies and visualized by staining with fluorescently-conjugated secondary antibodies. Cells are stained with (a) a monoclonal antibody against uPAR or (b) a polyclonal antibody against uPA.
# (§8) In cells with clear surface staining, the surface of each cell was outlined using uPAR staining and then the pixel immunodensity for uPAR and uPA were determined using Nikon elements software in the outlined regions. Only cells where the cell membrane was clearly discernible were included in the analysis. Each value represents the mean±S.E. from 26-30 cells taken from three different fields from two independent samples. *significant difference from the DMSO control (p<0.001, Student's t test). In the absence of any compound (0.1% DMSO; vehicle control) both uPAR and uPA were detected in large intracellular clusters as well as on surface membranes of MDA-MB-231 cells.
# H1299 cells [6] = experiment: Immunofluorescence imaging of surface uPA and uPAR; type: cell-based, human; conditions: H1299, 100 μM, 30 min, vs DMSO control
# Method: as §6, §7, §8
smiles,measurement,setting,value
CC1CC(C)CN(c2cc(Nc3ccccc3C(=O)O)c3c4c(onc24)-c2ccccc2C3=O)C1 (centres unmarked) [IPR-456],cytotoxicity,"MDA-MB-231 cells [1]; MDA-MB-231, cells harvested from migration assays",none was observed
same,cytotoxicity,"MDA-MB-231 cells [1]; MDA-MB-231, timescale of invasion experiment, concentrations reaching 200 μM",did not exhibit undue toxicity
same,cytotoxicity,"H1299 cells [2]; H1299, cells harvested from migration assays",none was observed
same,cytotoxicity,"H1299 cells [2]; H1299, timescale of invasion experiment, concentrations reaching 200 μM",did not exhibit undue toxicity
same,cell adhesion,MDA-MB-231 cells [3],no effect on cell adhesion; also recorded: lack an effect
same,cell adhesion,H1299 cells [4],no effect on cell adhesion; also recorded: lack an effect
same,IC50,uPAATF binding to uPAR,~10 µM
same,Kd,uPAR; direct binding to uPAR by fluorescence polarization,0.312 µM
same,fluorescence polarization (mP) with increasing uPAR concentration,"uPAR; excitation 530 nm, emission 600 nm",showed a dose response with increasing mP
same,change in polarization with increasing uPAR,uPAR; in the presence of 10 μM competing GFD,no change in the polarization was detected
same,immunostaining pattern of uPAR,MDA-MB-231 cells [5],no change in the immunostaining pattern of uPAR
same,uPA staining at the cell surface,MDA-MB-231 cells [5],significant reduction of uPA staining at the cell surface; also recorded: impairs binding of uPA to uPAR at the cell membrane
same,immunostaining pattern of uPAR,H1299 cells [6],no change in the immunostaining pattern of uPAR
same,uPA staining at the cell surface,H1299 cells [6],significant reduction of uPA staining at the cell surface; also recorded: impairs binding of uPA to uPAR at the cell membrane
